The text below walks through data of ChEMBL document CHEMBL1148168, “The structures of aplysinamisines I, II, and III; new bromotyrosine-derived alkaloids from the Caribbean sponge Aplysina cauliformis” (J Nat Prod, 1993).

One assay has as its system Staphylococcus aureus. The assay can be described thus: Antimicrobial activity against Staphylococcus aureus at 50 to 100 ug/disk. The class given is functional, organism-based.
A further assay has as its system Pseudomonas aeruginosa. The assay can be described thus: Antimicrobial activity against Pseudomonas aeruginosa at 50 to 100 ug/disk. The class given is functional, organism-based.
Another assay relates to Escherichia coli. In words: Antimicrobial activity against Escherichia coli at 50 to 100 ug/disk. It counts as functional, organism-based.
A further assay relates to MCF7. In words: Cytotoxicity against human MCF7 cells. The class given is functional, cell-based.
In the next assay the test system is CCRF-CEM. The assay can be described thus: Cytotoxicity against human CCRF-CEM cells. It counts as functional, cell-based.
For another assay, the system named is HCT-116. In words: Cytotoxicity against human HCT116 cells. The class given is functional, cell-based.

In brackets after ≈: the same amount, converted by molar mass. Activity calls are given as the source filed them. The rule behind the calls is not given here. Some results are limits rather than exact numbers.

As to `COC1=C(Br)[C@H](O)[C@@]2(C=C1Br)CC(C(=O)NC/C=C\c1c[nH]c(N)n1)=NO2` [APLYSINAMISINE I], the result in the assay on Staphylococcus aureus, with Pseudomonas aeruginosa and in the assay on Escherichia coli was Active. For the same compound, the IC50 in the assay on MCF7 and in the assay with CCRF-CEM was more than 50 µg/mL in each case.

Regarding `COC1=C(Br)[C@H](O)[C@@]2(C=C1Br)CC(C(=O)NCCCOc1c(Br)cc(C(O)CNC(C)=O)cc1Br)=NO2` (some centres not stated) [APLYSINAMISINE III], the outcome in the assay with Staphylococcus aureus, in the assay with Pseudomonas aeruginosa and in the assay with Escherichia coli was Active. Further, the results for the IC50 in the assay with MCF7, with CCRF-CEM and with HCT-116 were 30 µg/mL (≈ 38.7 µM), 6 µg/mL (≈ 7.74 µM) and 10 µg/mL (≈ 12.9 µM), respectively.

Take `COC1=C(Br)[C@H](O)[C@@]2(C=C1Br)CC(C(=O)NCCCCCNC(=N)N)=NO2` [APLYSINAMISINE II]: the outcome in the assay with Staphylococcus aureus, in the assay on Pseudomonas aeruginosa and with Escherichia coli was Active. For the same compound, the IC50 with MCF7 was more than 50 µg/mL; in the assay with CCRF-CEM, more than 50 µg/mL; with HCT-116 it was 10 µg/mL (≈ 19.6 µM).

The IC50 is the concentration needed to halve the response being measured. Low readings indicate higher potency, high ones lower potency.
